Data reported in paper PMC9883013 (eLife, 2023).
“And” between values parts separate entries of the source, which are not always exact repeats. Equal entries are not always repeated. “Also recorded” adds a separate entry of the source. Where two headings read alike, the source gives them in different places.

Assays:
NCCc1c[nH]c2ccc(O)cc12 = experiment: cells, lysate or membranes; details: other: absence of any inhibitor; pH 7.4
[1] = biological target: T1, wild-type human YFP-tagged SERT (Homo sapiens, UniProt P31645); experiment: Saturation kinetics (KM, Vmax) of 5-HT uptake by SERT after preincubation with inhibitor
SERT = biological target: T2, SERT (Homo sapiens, UniProt P31645); experiment: Inhibition of [3H]citalopram binding to membranes from HEK293 cells expressing GFP-SERT
T2 construct: expressed in transfected cells
Procedure: Membranes were prepared from HEK293 cells stably expressing GFP-SERT. […] The pellets were resuspended in a buffer containing 20 mM HEPES, 2 mM MgCl2, 1 mm EDTA, pH adjusted to 7.4 with NaOH, subjected to freeze-thaw cycles in liquid nitrogen and sonicated on ice three times for 10 s with 30 s intervals. Following another centrifugation step, the whole-cell membrane pellets were resuspended in buffer and protein concentration was estimated by dye binding (Coomassie Brilliant Blue R-250; Bio-Rad, USA). […] Binding reactions were also done in the presence of 120 mM K^+ buffer (buffer composition: 20 mM Tris-HCl, pH 7.4, 1 mM EDTA, 2 mM MgCl2, 120 mM KCl; 4 mM Na^+ were present from the carry-over of HEPES·NaOH and from Na·EDTA). For binding reactions under these conditions, 7–8 µg of membranes were used to improve the dynamic range of binding. The binding reactions were terminated by harvesting the membranes on glass fiber filters precoated with polyethylenimine and rapid washing with ice-cold wash buffer (10 mM Tris·HCl, pH 7.4, 120 mM NaCl, 2 mM MgCl2). The radioactivity trapped on the filters was quantified by liquid scintillation counting. Nonspecific binding was measured in the presence of 10 µM paroxetine.

[2] = biological target: T3, wild-type GFP-tagged human SERT (Homo sapiens, UniProt P31645); experiment: Whole-cell patch clamp recordings of currents through SERT; assay type: cell-based; details: for transient peak current on application of the compound: 100 µM, absence of substrate
T3 construct: expressed in transfected cells
Procedure: HEK293 cells stably expressing wild-type GFP-tagged human SERT were seeded at low density on poly-D-lysine-coated dishes. Twenty hr after seeding, these cells were subjected to patch clamp recordings in the whole-cell configuration. In most instances cells were continuously maintained in an external solution containing 140 mM NaCl, 3 mM KCl, 2.5 mM CaCl2, 2 mM MgCl2, 20 mM glucose, and 10 mM HEPES (pH adjusted to 7.4 with NaOH) and the drugs were diluted therein. The internal solution in the patch pipette contained 133 mM potassium gluconate (CH2OH(CHOH)4COOK), 5.9 mM NaCl, 1 mM CaCl2, 0.7 mM MgCl2, 10 mM HEPES, 10 mM EGTA (pH adjusted to 7.2 with KOH). Drugs were applied using a 4-tube ALA perfusion manifold (NPI Electronic GmbH, Germany) and a DAD-12 superfusion system (Adams & List, Westbury, NY, USA) allowing for complete solution exchange around the cells within 100 ms. Current amplitudes and associated kinetics were quantified using Clampfit 10.2 software. Passive holding currents were subtracted, and the traces were filtered using a 100 Hz digital Gaussian low-pass filter.

WT-SERT = WT-SERT (Homo sapiens, UniProt P31645); experiment: [3H]5-HT uptake by cells transiently expressing WT-SERT after 24 hr preincubation; details: 30 µM for 24 hr; 0.1 µM [3H]5-HT
SERT-PG^601,602AA [3] = biological target: T4, SERT-PG^601,602AA (Homo sapiens, UniProt P31645, G602A/P601A); experiment: Immunoblotting of glycosylation state (mature vs core-glycosylated band) of the SERT mutant; assay type: cell-based
T4 construct: expressed in transfected cells; host or cells: HEK293 (ATCC CRL-1573), transient PEI transfection

[4] = biological target: T1, wild-type human YFP-tagged SERT; experiment: Inhibition of SERT-mediated [3H]5-HT uptake in HEK293 cells stably expressing YFP-SERT; assay type: cell-based; parameters: expressed in transfected cells
[5] = test system: YFP-tagged human SERT-PG^601,602AA in serotonergic neurons; experiment: Delivery of mutant transporter to the fan-shaped body in transgenic flies fed with drug; assay type: in vivo, Drosophila melanogaster; details: 100 µM in food for 48 hr, 3-day old male flies
Excerpt: (§1) The transgenic UAS reporter lines for YFP-tagged human wild-type SERT and SERT-PG^601,602AA were generated using the pUAST-attB vector (gift from Drs Bischof and Basler, University of Zürich) and injected into embryos of ZH-86Fb flies (Bloomington stock no. 24749). Positive transformants were isolated and selected. TRH-T2A-Gal4 (Bloomington stock no. 84694) was used to drive the expression of transporters in serotonergic neurons. […] The brains of these flies were then imaged using confocal microscopy. All flies were kept at 25°C, and all crosses were performed at 25°C.
(§2) Adult fly brains were dissected in PBS and fixed in 2% paraformaldehyde in PBS for 1 hr at room temperature. Brains were then washed three times in 0.1% Triton X-100 in PBS for 20 min on a shaker. Blocking was performed in 10% goat serum for 1 hr at room temperature on a shaker. Brains were then incubated in primary antibody overnight in PBS containing 3% BSA and 0.3% Triton X-100 at 4°C on a shaker. The rabbit polyclonal IgG directed against GFP (1:1000 dilution; A-11122, Invitrogen) and anti-serotonin antibody (S5545, Sigma-Aldrich) were used as primary antibodies. After three washes for 20 min with PBS containing 0.1% Triton X-100, the brains were incubated overnight at 4°C with a secondary antibody in PBS containing 0.3% Triton X-100 on a shaker. […]

SERT-PG^601,602AA [6] = biological target: T4, SERT-PG^601,602AA; experiment: Functional rescue (pharmacochaperoning) of folding-deficient SERT mutant, [3H]5-HT uptake after 24 hr preincubation; assay type: cell-based; details: for [3H]5-HT uptake normalized to untreated wild-type SERT: 30 µM for 24 hr, 0.1 µM [3H]5-HT, untreated mutant 14.8 ± 5.3%; for Emax: read-out: EMAX of pharmacochaperoning (rescued uptake, % of transport velocity in cells expressing wild-type SERT)
[7] = test system: YFP-tagged wild-type human SERT in serotonergic neurons; experiment: Localization of wild-type transporter in the fan-shaped body in transgenic flies fed with drug; assay type: in vivo, Drosophila melanogaster; details: 100 µM in food for 48 hr, flies harboring wild-type human SERT
Excerpt: as §1, §2

[8] = biological target: T3, wild-type GFP-tagged human SERT; experiment: Whole-cell patch clamp recordings of currents through SERT; assay type: cell-based; details: 100 µM pre-applied for 1 s or 3 s in the absence of 5-HT; internal 150 mM NaCl
[9] = preincubation with 3 µM inhibitor
[10] = preincubation with 10 µM inhibitor
[11] = preincubation with 30 µM inhibitor
[12] = inhibition of 10 µM 5-HT-induced steady current

wild-type human YFP-tagged SERT (Homo sapiens)
Km (NCCc1c[nH]c2ccc(O)cc12): 2.3 µM

COC(=O)[C@H]1[C@@H](OC(=O)c2ccccc2)C[C@@H]2CC[C@H]1N2C [cocaine]
mode of inhibition of substrate uptake by SERT [1]: competitive
VMAX of 5-HT transport by SERT [1, 9]: 118.3 pmol min^–1 10^–6 cells
VMAX of 5-HT transport by SERT [1, 10]: 121.1 pmol min^–1 10^–6 cells
VMAX of 5-HT transport by SERT [1, 11]: 120.1 pmol min^–1 10^–6 cells
potency in inhibiting [3H]citalopram binding in 120 mM KCl compared with 120 mM NaCl (SERT): substantially less potent (by an order of magnitude)
kapp of current inhibition, level at which it leveled off ([2]; 10 µM 5-HT-induced steady current, –60 mV): about 2 s^–1
transient peak current on application of the compound [2]: induced transient peak currents
[3H]5-HT uptake normalized to untreated wild-type SERT (WT-SERT): 111.4 ± 4.2%
effect on SERT species carrying mature glycans (SERT-PG^601,602AA [3]; 30 µM (saturating concentration), 24 hr): did not cause any appreciable increase

O=CNC(Cc1ccc2c(c1)OCO2)Cc1ccc2c(c1)OCO2 [ECSI#6, N-formyl-1,3-bis (3,4-methylenedioxyphenyl)-prop-2-yl-amine]
mode of inhibition of substrate uptake by SERT [1]: uncompetitive inhibition
VMAX of 5-HT transport by SERT [1, 10]: 89.5 pmol min^–1 10^–6 cells
VMAX of 5-HT transport by SERT [1, 11]: 49.9 pmol min^–1 10^–6 cells
VMAX of 5-HT transport by SERT ([1]; preincubation with 100 µM inhibitor): 20.8 pmol min^–1 10^–6 cells
IC50 ([4]; IC50(0.1), inhibition of [3H]5-HT uptake, 0.1 µM [3H]5-HT, absence of additional unlabeled 5-HT): 441 µM
IC50 ([4]; IC50(1), inhibition of [3H]5-HT uptake, 0.1 µM [3H]5-HT, presence of 1 µM unlabeled 5-HT): 74.1 µM
IC50 ([4]; IC50(3), inhibition of [3H]5-HT uptake, 0.1 µM [3H]5-HT, presence of 3 µM unlabeled 5-HT): 25.6 µM
IC50 ([4]; IC50(10), inhibition of [3H]5-HT uptake, 0.1 µM [3H]5-HT, presence of 10 µM unlabeled 5-HT): 19.3 µM
IC50 ([4]; low 5-HT concentration (0.1 µM), read-out: IC50 value in the uptake assay): ~500 µM
fold more potent in displacing [3H]citalopram in 120 mM KCl than in 120 mM NaCl (SERT): about 10 fold
binding relative to serotonin (Dixon plots) (SERT; 1 and 10 µM serotonin): mutually exclusive
IC50 (SERT; IC50(1 µM 5-HT), inhibition of [3H]citalopram binding, 120 mM Na+, 1 µM 5-HT): 28.6 µM
IC50 (SERT; IC50(10 µM 5-HT), inhibition of [3H]citalopram binding, 120 mM Na+, 10 µM 5-HT): 60 µM
IC50 (SERT; IC50(no 5-HT), inhibition of [3H]citalopram binding, 120 mM Na+, 3 nM [3H]citalopram, no 5-HT): 16 µM
IC50 (SERT; buffer with 120 mM K+, read-out: IC50(120 K+), inhibition of [3H]citalopram binding): 4.18 µM and 5 µM
IC50 (SERT; buffer with 120 mM Na+ (Na+/K+ comparison), read-out: IC50(120 Na+), inhibition of [3H]citalopram binding): 46.2 µM
affinity estimate, fold lower than the KD of 1 µM required for ToNaS (SERT; presence of 10 µM 5-HT): > 30 fold
IC50 ([2]; 30 µM 5-HT, ECSI#6 co-applied, read-out: IC50 of block of the 5-HT-induced steady current): 4.5 µM and ~5 µM
effect on 5-HT-induced steady current ([2]; 100 µM in continuous presence of 10 µM 5-HT): complete suppression of the current
effect of intracellular application on 5-HT-induced current amplitude ([2]; 100 µM in the electrode solution, 30 µM 5-HT): only had a modest effect, if any; also recorded: did not cause an appreciable current block
ratio of the second and first pulse (peak 2/peak 1) ([2]; 100 µM pre-applied for 1 s or 3 s): always close to one
transient peak current on application of the compound [2]: failed to do so
koff (y-intercept of kapp vs concentration) [2, 12]: 1.7±0.5 s^–1
kon (slope of kapp vs concentration) [2, 12]: 2.1*10^4±3.5*10^3 M^–1 s^–1
delivery of the mutant transporter to the presynaptic territory (fan-shaped body) [5]: partially restored the delivery of the mutant transporter to the presynaptic territory
[3H]5-HT uptake normalized to untreated wild-type SERT (WT-SERT): 103.3 ± 11.3%
[3H]5-HT uptake normalized to untreated wild-type SERT (SERT-PG^601,602AA [6]): 56.5 ± 5.1%
EC50 (SERT-PG^601,602AA [6]; 24 hr preincubation, read-out: EC50 for pharmacochaperoning (rescued uptake)): 2.9 µM
Emax (SERT-PG^601,602AA [6]): 52%
effect on level of fluorescence in the fan-shaped body [7]: did not have any appreciable effect
EC50 (SERT-PG^601,602AA [3]): 0.44 µM
EMAX of ratio of mature (M) to core-glycosylated band (C) (SERT-PG^601,602AA [3]; 24 hr treatment, densitometry, corrected for Gβ): 1.42 AU
effect of pre-application on 5-HT-induced peak current amplitude [8]: did not result in the reduction of the peak current amplitude

CCC1CC2CC3c4[nH]c5ccc(O)cc5c4CCN(C2)C13 (stereo not drawn) [noribogaine, reference compound]
mode of inhibition of substrate uptake by SERT [1]: non-competitive
VMAX of 5-HT transport by SERT ([1]; preincubation with 1 µM inhibitor): 82.4 pmol min^–1 10^–6 cells
VMAX of 5-HT transport by SERT [1, 9]: 39.9 pmol min^–1 10^–6 cells
VMAX of 5-HT transport by SERT [1, 10]: 19.5 pmol min^–1 10^–6 cells
potency in inhibiting [3H]citalopram binding in 120 mM KCl compared with 120 mM NaCl (SERT): distinct binding preference was not obvious
transient peak current on application of the compound [2]: induced transient peak currents
delivery of the mutant transporter to the presynaptic territory (fan-shaped body) [5]: partially restored the delivery of the mutant transporter to the presynaptic territory
[3H]5-HT uptake normalized to untreated wild-type SERT (WT-SERT): 93.5 ± 28.8%
[3H]5-HT uptake normalized to untreated wild-type SERT (SERT-PG^601,602AA [6]): 71.9 ± 6.4%
Emax (SERT-PG^601,602AA [6]): 69.5%
effect on level of fluorescence in the fan-shaped body [7]: did not have any appreciable effect
